Measurements reported in patent US20250122221A1 (NANJING ZAIMING PHARMACEUTICAL CO., LTD., priority 2022, published 2025).
Like-named read-outs stand apart in the source and are kept apart here.

Tests used:
[1] = target: N-terminal active peptide segment (MI-N899) of POLQ with ATPase activity (Homo sapiens (Human), UniProt O75417); assay: POLQ enzyme activity inhibition experiment (ATPase, NADH-coupled, OD 340 nm); type: biochemical; settings: 100 nM POLQ (N), 100 μM ATP, 300 nM dT50
DLD-1 BRCA2 (−/−) cells = assay: Inhibition of tumour cell proliferation, 7 days, CTG; type: cell-based; settings: Homo sapiens, read-out: DLD-1 BRCA2 (−/−) IC50
Description: (§1) Brief introduction to the experimental principle: The compounds were co-incubated with tumour cells for 7 days, and then a CTG kit from Promega Inc was used to quantify ATP in viable cells, thus reflecting the effect of the compounds on tumour cell proliferation.
(§2) Experimental method: DLD-1 parental cells or DLD-1 BRCA2 (−/−) cells were diluted with RPMI 1640 medium containing 10% FBS, and then added to a 96-well plate (90 μL/well), with the number of cells being 600 cells/well or 1200 cells/well, respectively, and cultured overnight in a 37° C., 5% CO2 incubator. The compounds to be tested were diluted to different concentrations in dimethyl sulfoxide (DMSO), and then added to a 96-well plate. The final concentration of the compounds in the reaction system started from 25 μM, and was subjected to 4-fold gradient dilution. The concentration range of the compounds was from 25 μM to 0.0004 μM, and the final concentration of DMSO was 0.25% v/v. After 7 days of incubation, 50 μL/well CTG was added, and the mixture was incubated at room temperature for 10 minutes. Subsequently, the luminescence (Lum) signal value was read with an Envision microplate reader, and the inhibition rate and half inhibitory concentration (IC50) were calculated.
(§3) The inhibition rate was calculated, and XLfit software was used to perform fitting to obtain IC50 of the compounds.
(§4) In the experiment, a blank well and a DMSO well were set up, respectively.
(§5) Inhibition rate=100*(Lummax−Lumcompound)/(Lummax−Lummin)%, • where Lummax refers to the luminescence signal value of the well containing cells and 0.25% v/v DMSO; Lumcompound refers to the luminescence signal value of the well containing the compound and cells; and Lummin refers to the luminescence signal value of the well containing the medium and 0.25% v/v DMSO.

DLD-1 parental cells = assay: as above; type: cell-based; settings: Homo sapiens, read-out: DLD-1 parental cell IC50
Description: as §1, §2, §3, §4, §5

[2] = 168 h, DLD-1 BRCA2 (−/−) cells, 7 days of incubation, CTG
[3] = 168 h, DLD-1 parental cells, 7 days of incubation, CTG

N-terminal active peptide segment (MI-N899) of POLQ with ATPase activity, sequence (O75417 1-899 limits assumed): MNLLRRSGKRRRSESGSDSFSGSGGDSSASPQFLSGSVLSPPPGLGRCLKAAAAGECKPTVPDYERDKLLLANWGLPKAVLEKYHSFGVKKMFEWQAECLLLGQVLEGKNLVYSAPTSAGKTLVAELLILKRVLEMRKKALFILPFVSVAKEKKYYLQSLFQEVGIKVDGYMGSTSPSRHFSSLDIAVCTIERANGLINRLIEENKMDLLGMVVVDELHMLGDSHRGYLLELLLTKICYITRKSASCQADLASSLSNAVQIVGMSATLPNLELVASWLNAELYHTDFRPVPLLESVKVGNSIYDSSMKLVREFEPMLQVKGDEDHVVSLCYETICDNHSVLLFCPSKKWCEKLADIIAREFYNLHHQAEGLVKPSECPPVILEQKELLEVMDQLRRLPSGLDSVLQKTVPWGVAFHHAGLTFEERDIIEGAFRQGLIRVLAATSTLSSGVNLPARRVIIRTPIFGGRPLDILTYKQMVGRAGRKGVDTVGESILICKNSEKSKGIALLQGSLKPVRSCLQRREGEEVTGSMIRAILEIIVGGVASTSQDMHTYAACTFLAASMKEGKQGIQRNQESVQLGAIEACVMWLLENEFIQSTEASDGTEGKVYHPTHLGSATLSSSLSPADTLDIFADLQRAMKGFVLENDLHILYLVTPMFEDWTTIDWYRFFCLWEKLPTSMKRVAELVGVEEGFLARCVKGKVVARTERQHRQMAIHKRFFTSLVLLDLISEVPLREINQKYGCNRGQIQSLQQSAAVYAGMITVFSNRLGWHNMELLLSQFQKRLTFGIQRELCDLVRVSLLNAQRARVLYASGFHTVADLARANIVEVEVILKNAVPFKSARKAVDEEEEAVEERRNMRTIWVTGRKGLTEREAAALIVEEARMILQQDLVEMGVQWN

IC50 [1] [nM]	IC50 (DLD-1 BRCA2 (−/−) cells; [2]) [nM]	Compound	IC50 (DLD-1 parental cells; [3]) [nM]	IC50 (DLD-1 BRCA2 (−/−) cells; DLD-1, 168 h) [nM]	IC50 (DLD-1 parental cells; DLD-1, 168 h) [nM]
< 100	< 200	COc1cnc(C)cc1-c1cc(C)ccc1C(=O)Nc1nc2ncc(-c3ccc(C#N)cc3)nc2s1 [Compound 92, N-(6-(4-cyanophenyl)thiazolo[4,5-b]pyrazin-2-yl)-2-(5-methoxy-2-methylpyridine-4-yl)-4-methylbenzamide]	> 10000		
< 100	< 200	COc1ccc(Cl)cc1-c1cc(C)ccc1C(=O)Nc1nc2ncc(-c3ccc(C#N)cc3)nc2s1 [Compound 93, 5′-chloro-N-(6-(4-cyanophenyl)thiazolo[4,5-b]pyrazin-2-yl)-2′-methoxy-5-methyl-[1,1′-biphenyl]-2-carboxamide]	> 10000		

Compound	IC50 [1] [nM]	IC50 (DLD-1 BRCA2 (−/−) cells; [2]) [nM]	IC50 (DLD-1 parental cells; [3]) [nM]	IC50 (DLD-1 BRCA2 (−/−) cells; DLD-1, 168 h) [nM]	IC50 (DLD-1 parental cells; DLD-1, 168 h) [nM]
Cc1cc(-c2cc(Cl)ccc2OC2CC2)c(C(=O)Nc2nc3ncc(-c4ccc(C#N)cc4)nc3s2)cn1 [Compound 94, 4-(5-chloro-2-cyclopropoxyphenyl)-N-(6-(4-cyanophenyl)thiazolo[4,5-b]pyrazin-2-yl)-6-methylpyridine-3-carboxamide]	< 100			< 200	> 10000
